Assay results taken from ChEMBL document CHEMBL1629699, “Cell wall thickening is not a universal accompaniment of the daptomycin nonsusceptibility phenotype in Staphylococcus aureus: evidence for multiple resistance mechanisms” (Antimicrob Agents Chemother, 2010).
Converted amounts (≈) assume the structure as drawn.

Legend:
Staphylococcus aureus [1] = assay: AUC in methicillin-resistant sStaphylococcus aureus 11/11; details: in vitro population analysis
Cell membrane [2] = assay: Binding affinity to daptomycin-resistant Staphylococcus aureus REF2145 cell membrane assessed as amount of compound bound at 8 ug after 10 mins
Cell membrane [3] = assay: Binding affinity to methicillin-susceptible Staphylococcus aureus 11/11 cell membrane assessed as amount of compound bound at 8 ug after 10 mins
Cell membrane [4] = assay: Binding affinity to daptomycin-resistant Staphylococcus aureus REF2145 cell membrane assessed as amount of compound bound at 6 ug after 10 mins
Staphylococcus aureus [5] = assay: Antimicrobial activity against Staphylococcus aureus CB5035 by Etest; assay type: functional
Staphylococcus aureus [6] = assay: Antimicrobial activity against Staphylococcus aureus CB5036 by Etest; assay type: functional
Staphylococcus aureus [7] = assay: Antimicrobial activity against Staphylococcus aureus CB184 after 24 hrs by Etest; details: CB184, 24 h
Staphylococcus aureus [8] = assay: Antimicrobial activity against Staphylococcus aureus BMC1001 by Etest
Staphylococcus aureus [9] = assay: Antimicrobial activity against Staphylococcus aureus CB5054 by Etest; assay type: functional
Staphylococcus aureus [10] = assay: Antimicrobial activity against Staphylococcus aureus CB1482 after 24 hrs by plate reader analysis; details: CB1482, 24 h
Staphylococcus aureus [11] = assay: Antimicrobial activity against Staphylococcus aureus BMC1002 by Etest; assay type: functional
Cell membrane [12] = assay: Binding affinity to methicillin-susceptible Staphylococcus aureus 11/11 cell membrane assessed as amount of compound bound at 6 ug after 10 mins
Staphylococcus aureus [13] = assay: Antimicrobial activity against Staphylococcus aureus CB5053 by Etest

Row | Compound | AUC (Staphylococcus aureus [1]) [µg/mL] | Activity (Cell membrane [2]) [µg/mL] | Activity (Cell membrane [3]) [µg/mL] | Activity (Cell membrane [4]) [µg/mL] | MIC (Staphylococcus aureus [5]) [µg/mL] | MIC (Staphylococcus aureus [6]) [µg/mL] | MIC (Staphylococcus aureus [7]) [µg/mL] | MIC (Staphylococcus aureus [8]) [µg/mL] | MIC (Staphylococcus aureus [9]) [µg/mL] | MIC (Staphylococcus aureus [10]) [µg/mL] | MIC (Staphylococcus aureus [11]) [µg/mL] | Activity (Cell membrane [12]) [µg/mL] | MIC (Staphylococcus aureus [13]) [µg/mL]
1 | CN[C@H](CC(C)C)C(=O)N[C@H]1C(=O)N[C@@H](CC(N)=O)C(=O)N[C@H]2C(=O)N[C@H]3C(=O)N[C@H](C(=O)N[C@H](C(=O)O)c4cc(O)cc(O)c4-c4cc3ccc4O)[C@H](O)c3ccc(c(Cl)c3)Oc3cc2cc(c3O[C@@H]2O[C@H](CO)[C@@H](O)[C@H](O)[C@H]2O[C@H]2C[C@](C)(N)[C@H](O)[C@H](C)O2)Oc2ccc(cc2Cl)[C@H]1O [VANCOMYCIN] | 5.96 | 1.78 | 1.81 | – | – | – | – | – | – | – | – | – | –
2 | CCCCCCCCCC(=O)N[C@@H](Cc1c[nH]c2ccccc12)C(=O)N[C@H](CC(N)=O)C(=O)N[C@@H](CC(=O)O)C(=O)N[C@@H]1C(=O)NCC(=O)N[C@@H](CCCN)C(=O)N[C@@H](CC(=O)O)C(=O)N[C@H](C)C(=O)N[C@@H](CC(=O)O)C(=O)NCC(=O)N[C@H](CO)C(=O)N[C@@H]([C@H](C)CC(=O)O)C(=O)N[C@@H](CC(=O)c2ccccc2N)C(=O)O[C@@H]1C | 8.41 | – | – | 0.79 | 0.38 (≈ 0.234 µM) | 2 (≈ 1.23 µM) | 4 (≈ 2.47 µM) | 0.5 (≈ 0.309 µM) | 2 (≈ 1.23 µM) | 0.5 (≈ 0.309 µM) | 2 (≈ 1.23 µM) | 2.03 | 0.5 (≈ 0.309 µM)
